Laboratory results reported in patent US8754100B2, “Nitrogen-containing fused heterocyclic compounds and their use as beta amyloid production inhibitors” (EISAI R&D Management Co., Ltd., priority 2009, dated 2014).

test system: Aβ42 production in rat primary neuronal culture; assay: Quantification of Aβ peptide (Aβ42 ELISA) in culture of neurons from rat fetus brain; type: cell-based; settings: Rattus norvegicus, Neuron, 72 h; primary neuronal culture from cerebral cortex of embryonic day 18 Wistar rats; cultured three days after addition of compound; Aβ42 in medium by ELISA; read-out: Aβ42 Production reducing action IC50
Protocol: Quantification of Aβ Peptide in Culture of Neurons from Rat Fetus Brain
(1) Rat Primary Neuronal Culture
Primary neuronal cultures were prepared from the cerebral cortex of embryonic day 18 Wistar rats (Charles River Japan, Yokohama, Japan). Specifically, the embryos were aseptically removed from pregnant rats under ether anesthesia. The brain was isolated from the embryo and immersed in an ice-cold L-15 medium (Invitrogen Corp. Cat #11415-064, Carlsbad, Calif., USA, or SIGMA L1518, for example). The cerebral cortex was collected from the isolated brain under a stereoscopic microscope. The cerebral cortex fragments collected were enzymatically treated in an enzyme solution containing 0.25% trypsin (Invitrogen Corp. Cat #15050-065, Carlsbad, Calif., USA) and 0.01% DNase (Sigma D5025, St. Louis, Mo., USA) at 37° C. for 30 minutes to disperse the cells. Here, the enzymatic reaction was stopped by adding inactivated horse serum to the solution. The enzymatically treated solution was centrifuged at 1,500 rpm for five minutes to remove the supernatant 5 to 10 ml of a medium was added to the resulting cell mass. Neurobasal medium (Invitrogen Corp. Cat #21103-049, Carlsbad, Calif., USA) supplemented with 2% B27 supplement (Invitrogen Corp. Cat #17504-044, Carlsbad, Calif., USA), 25 μM 2-mercaptoethanol (2-ME, WAKO Cat #139-06861, Osaka, Japan), 0.5 mM L-glutamine (Invitrogen Corp. Cat #25030-081, Carlsbad, Calif., USA), and Antibiotics-Antimycotics (Invitrogen Corp. Cat #15240-062, Carlsbad, Calif., USA) was used as the medium (Neurobasal/B27/2-ME). However, the above Neurobasal medium not supplemented with 2-ME (Neurobasal/B27) was used for the assay. The cells were redispersed by mild pipetting of the cell mass to which the medium was added. The cell dispersion was filtered through a 40-μm nylon mesh (Cell Strainer, Cat #35-2340, Becton Dickinson Labware, Franklin Lakes, N.J., USA) to remove the remaining cell mass, and thus a neuronal cell suspension was obtained. The neuronal cell suspension was diluted with the medium and then plated in a volume of 100 μl/well at an initial cell density of 5×10^5 cells/cm^2 in a 96-well polystyrene culture plate pre-coated with poly-L or D-lysine (Falcon Cat #35-3075, Becton Dickinson Labware, Franklin Lakes, N.J., USA coated with poly-L-lysine using the method shown below, or BIOCOAT™ cell environments Poly-D-lysine cell ware 96-well plate, Cat #35-6461, Becton Dickinson Labware, Franklin Lakes, N.J., USA). Poly-L-lysine coating was carried out as follows. 100 μg/ml of a poly-L-lysine (SIGMA P2636, St. Louis, Mo., USA) solution was aseptically prepared with a 0.15 M borate buffer (pH 8.5). […] Thereafter, the coated 96-well polystyrene culture plate was washed with sterile water four or more times, and then dried or rinsed with sterile PBS or medium, and used for cell plating. The plated cells were cultured in the culture plate at 37° C. in 5% CO2-95% air for one day. Then, the total amount of the medium was replaced with a fresh Neurobasal/B27/2-ME medium, and then the cells were cultured for further three days.
The drug was added to the culture plate on Day 4 of culture as follows. The total amount of the medium was removed from the wells, and 180 μl/well of Neurobasal medium not containing 2-ME and containing 2% B-27 (Neurobasal/B27) was added thereto. A solution of the test compound in dimethyl sulfoxide (hereinafter abbreviated as DMSO) was diluted with Neurobasal/B27 to a concentration 10-fold higher than the final concentration. 20 μl/well of the dilution was added to and sufficiently mixed with the medium. The final DMSO concentration was 1% or less. Only DMSO was added to the control group.
The cells were cultured for three days after addition of the compound, and the total amount of the medium was collected. The resulting medium was used as an ELISA sample. […]

| Structure (SMILES) | IC50 [nM] |
| --- | --- |
| COc1nc(-c2cn3c(n2)C(c2ccccc2C(F)(F)F)CCC3)ccc1-n1cnc(C)c1 (single isomer, unassigned) [Example 102, (−)-2-[6-methoxy-5-(4-methylimidazol-1-yl)pyridin-2-yl]-8-(2-trifluoromethylphenyl)-5,6,7,8-tetrahydroimidazo[1,2-a]pyridine] | 55 |
| COc1nc(-c2cn3c(n2)[C@H](c2ccccc2C(F)(F)F)CC3)ccc1-n1cnc(C)c1 (single isomer, unassigned) [Example 104, (−)-2-[6-methoxy-5-(4-methylimidazol-1-yl)pyridin-2-yl]-7-(2-trifluoromethylphenyl)-6,7-dihydro-5H-pyrrolo[1,2-a]imidazole] | 91 |
| COc1nc(-c2cn3c(n2)[C@H](c2ccc(Cl)cc2C(F)(F)F)CCC3)ccc1-n1cnc(C)c1 (single isomer, unassigned) [Example 108, (−)-8-(4-chloro-2-trifluoromethylphenyl)-2-[6-methoxy-5-(4-methylimidazol-1-yl)pyridin-2-yl]-5,6,7,8-tetrahydroimidazo[1,2-a]pyridine] | 18 |
| COc1cc(C)c(C2CCCn3nc(-c4ccc(-n5cnc(C)c5)c(OC)n4)nc32)cc1C(C)C (single isomer, unassigned; (-)) [Example 2, (−)-8-(5-isopropyl-4-methoxy-2-methylphenyl)-2-[6-methoxy-5-(4-methylimidazol-1-yl)pyridin-2-yl]-5,6,7,8-tetrahydro[1,2,4]triazolo[1,5-a]pyridine] | 10 |
| COc1nc(-c2nc3n(n2)CCC[C@@H]3c2cc(-c3ccc(C(F)(F)F)cn3)ccc2Cl)ccc1-n1cnc(C)c1 (stereo in doubt) [Example 361, (−)-8-[2-chloro-5-(5-trifluoromethylpyridine-2-yl)phenyl]-2-[6-methoxy-5-(4-methyl-1H-imidazole-1-yl)pyridine-2-yl]-5,6,7,8-tetrahydro[1,2,4]triazolo[1,5-a]pyridine] | 13 |
| COc1nc(-c2cn3c(n2)[C@H](c2ccc(Br)cc2C(F)(F)F)CCC3)ccc1-n1cnc(C)c1 [Example 100, (−)-8-(4-bromo-2-trifluoromethylphenyl)-2-[6-methoxy-5-(4-methylimidazol-1-yl)pyridin-2-yl]-5,6,7,8-tetrahydroimidazo[1,2-a]pyridine] | 9 |
| COc1cc([C@@H]2CCCn3nc(-c4ccc(-n5cnc(C)c5)c(OC)n4)nc32)cc(C(C)(C)C)c1 [Example 187] | 11 |
| COc1cc([C@@H]2CCCn3nc(-c4ccc(-n5cnc(C)c5)c(OC)n4)nc32)ccc1C(C)(C)C [Example 191] | 7 |
| COc1nc(-c2nc3n(n2)CCC[C@H]3c2cccc(C(C)(C)C)c2)ccc1-n1cnc(C)c1 [Example 193] | 13 |
| COc1nc(-c2nc3n(n2)CCC[C@H]3c2cc(C(C)(C)C)ccc2F)ccc1-n1cnc(C)c1 [Example 197] | 13 |
| COc1nc(-c2nc3n(n2)CCC[C@H]3c2cc(C(C)(C)C)ccc2Br)ccc1-n1cnc(C)c1 [Example 199] | 6 |
| COc1nc(-c2nc3n(n2)CCC[C@H]3c2cc(C(C)(C)C)c(F)cc2F)ccc1-n1cnc(C)c1 [Example 211] | 15 |
| COc1nc(-c2nc3n(n2)CCC[C@H]3c2cc(C(C)(C)C#N)c(Cl)cc2Cl)ccc1-n1cnc(C)c1 [Example 225] | 28 |
| COc1nc(-c2cn3c(n2)[C@H](c2cccc(C(C)(C)C)c2OC)CCC3)ccc1-n1cnc(C)c1 [Example 239] | 12 |
| COc1cc([C@@H]2CCCn3cc(-c4ccc(-n5cnc(C)c5)c(OC)n4)nc32)ccc1C(C)(C)C [Example 240] | 5 |
| COc1nc(-c2cn3c(n2)[C@H](c2ccc(C(C)(C)C)cc2)CCC3)ccc1-n1cnc(C)c1 [Example 242] | 9 |
| COc1nc(-c2cn3c(n2)[C@H](c2cc(C(C)(C)C#N)ccc2Cl)CCC3)ccc1-n1cnc(C)c1 [Example 245] | 16 |
| COc1nc(-c2cn3c(n2)[C@H](c2ccc(C(C)(C)C#N)cc2Cl)CCC3)ccc1-n1cnc(C)c1 [Example 246] | 55 |

| Structure (SMILES) | IC50 [nM] |
| --- | --- |
| COc1nc(-c2cn3c(n2)[C@H](c2cc(Br)ccc2C(F)(F)F)CCC3)ccc1-n1cnc(C)c1 [Example 250] | 13 |
| COc1nc(-c2nc3n(n2)CCC[C@@H]3c2cc(C(C)(C)OC)ccc2Cl)ccc1-n1cnc(C)c1 [Example 267, (−)-2-[6-methoxy-5-(4-methyl-1H-imidazol-1-yl)pyridin-2-yl]-8-(2-chloro-5-(1-methoxy-1-methylethyl)phenyl)-5,6,7,8-tetrahydro[1,2,4]triazolo[1,5-a]pyridine] | 29 |
| COc1nc(-c2nc3n(n2)CCC[C@H]3c2cc(N3CCCCC3)ccc2Br)ccc1-n1cnc(C)c1 [Example 279] | 8 |
| COc1nc(-c2nc3n(n2)CCC[C@H]3c2ccc(Cl)c(N3CCCCC3)c2)ccc1-n1cnc(C)c1 [Example 287] | 22 |
| COc1nc(-c2nc3n(n2)CCC[C@H]3c2ccc(N3CCCCC3)cc2Cl)ccc1-n1cnc(C)c1 [Example 295] | 33 |
| COc1nc(-c2nc3n(n2)CCC[C@H]3c2ccc(N(CC3CC3)CC(F)(F)F)cc2Cl)ccc1-n1cnc(C)c1 [Example 307] | 13 |
| COc1nc(-c2nc3n(n2)CCC[C@H]3c2ccc(N(CC(F)(F)F)C3CC3)cc2Cl)ccc1-n1cnc(C)c1 [Example 309] | 14 |
| COc1nc(-c2nc3n(n2)CCC[C@H]3c2cc(N3CCC(C)CC3)ccc2Cl)ccc1-n1cnc(C)c1 [Example 311] | 12 |
| COc1nc(-c2nc3n(n2)CCC[C@H]3c2cc(N(CC3CC3)CC(F)(F)F)ccc2Cl)ccc1-n1cnc(C)c1 [Example 313] | 6 |
| COc1nc(-c2nc3n(n2)CCC[C@H]3c2cc(N(CC3CC3)CC3CC3)ccc2Cl)ccc1-n1cnc(C)c1 [Example 315] | 4 |
| COc1nc(-c2nc3n(n2)CCC[C@H]3c2cc(N3CCC(C(F)(F)F)CC3)ccc2Cl)ccc1-n1cnc(C)c1 [Example 317] | 15 |
| COc1nc(-c2nc3n(n2)CCC[C@H]3c2cc(N3CC(C)CC(C)C3)ccc2Cl)ccc1-n1cnc(C)c1 (stereo partly shown) [Example 319] | 10 |
| COc1ccc(C(C)(C)C(F)(F)F)cc1[C@@H]1CCCn2nc(-c3ccc(-n4cnc(C)c4)c(OC)n3)nc21 [Example 331] | 12 |
| COc1nc(-c2nc3n(n2)CCC[C@H]3c2ccc3c(c2)C(C)(C)CN3CC(F)(F)F)ccc1-n1cnc(C)c1 [Example 337] | 13 |
| COc1nc(-c2nc3n(n2)CCC[C@H]3c2cc(N3CCCC3)ccc2Cl)ccc1-n1cnc(C)c1 [Example 347] | 30 |
| COc1nc(-c2nc3n(n2)CCC[C@H]3c2cc(-c3ccccc3)ccc2Cl)ccc1-n1cnc(C)c1 [Example 359] | 16 |
| COc1nc(-c2nc3n(n2)CCC[C@H]3c2ccc(N3CCCCCC3)cc2)ccc1-n1cnc(C)c1 [Example 383] | 21 |

same assay, conditions: primary neuronal culture from cerebral cortex of embryonic day 18 Wistar rats; cultured three days after addition of compound; Aβ42 in medium by ELISA; read-out: Aβ42 Production reducing action IC50

| Structure (SMILES) | IC50 [nM] |
| --- | --- |
| COc1nc(-c2nc3n(n2)CCC[C@H]3c2ccc(Br)cc2C(F)(F)F)ccc1-n1cnc(C)c1 [Example 42, −8-4-bromo-2-trifluoromethylphenyl-2-[6-methoxy-5-(4-methylimidazol-1-yl)pyridin-2-yl]-5,6,7,8-tetrahydro[1,2,4]triazolo[1,5-a]pyridine] | 52 |
| COc1ccc([C@@H]2CCCn3nc(-c4ccc(-n5cnc(C)c5)c(OC)n4)nc32)cc1C(C)(C)C [Example 59] | 7 |
